Experimental data: article PMC10762035, “Molecular basis of human trace amine-associated receptor 1 activation” (Nature Communications, 2024)
Where a chain is given by its changes, count along the chain named. Where “and” joins values, the source holds several entries; their conditions need not be identical. Identical values can stand only once. Like-named read-outs stand apart in the source and are kept apart here.

How the values were obtained:
Format in all cases: cell-based
hTA1 b2N = molecular target: T1, hTA1 b2N (Homo sapiens, UniProt Q96RJ0); experiment: GloSensor cAMP accumulation assay, b2N construct; settings: b2N, n=2
T1 construct: read by me as the first 25 residues of β2AR (N); expressed in transfected cells; host or cells: HEK293T

hTA1 I290Y = molecular target: T2, hTA1 I290Y (Homo sapiens, UniProt Q96RJ0, I290Y); experiment: GloSensor cAMP accumulation assay, I290Y mutant; settings: for cAMP accumulation response, normalized (concentration-response source data, single replicate values): hTA1 I290Y (N=3), log[Compound];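 for cAMP accumulation response, normalized (concentration-response source data, single replicate values): normalized to the maximum response of β-PEA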
T2 construct: expressed in transfected cells; host or cells: HEK293T
T2 sequence (Q96RJ0 1-339 I290Y): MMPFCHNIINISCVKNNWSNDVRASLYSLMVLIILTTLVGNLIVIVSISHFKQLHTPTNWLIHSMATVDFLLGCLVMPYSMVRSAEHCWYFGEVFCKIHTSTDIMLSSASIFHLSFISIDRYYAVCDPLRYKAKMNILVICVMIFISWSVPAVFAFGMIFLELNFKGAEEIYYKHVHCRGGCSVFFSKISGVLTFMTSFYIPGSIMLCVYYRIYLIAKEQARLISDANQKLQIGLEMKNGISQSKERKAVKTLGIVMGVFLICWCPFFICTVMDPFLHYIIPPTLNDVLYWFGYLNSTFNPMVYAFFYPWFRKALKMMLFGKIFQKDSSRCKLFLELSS

hTA1 C5S = molecular target: T3, hTA1 C5S (Homo sapiens, UniProt Q96RJ0, C5S); experiment: GloSensor cAMP accumulation assay, C5S mutant; settings: for C5S - Normalized Luminescence Counts (N=2): log[Compound], single wells
T3 construct: expressed in transfected cells; host or cells: HEK293T
T3 sequence (Q96RJ0 1-339 C5S): T2 sequence (Q96RJ0 1-339 I290Y) with C5S, Y290I

[1] = molecular target: T4, β2AR-Nterm-hTA1-F112^3.41W (CryoEM Construct) (Homo sapiens, UniProt Q96RJ0, F112W); experiment: GloSensor cAMP accumulation assay, cryoEM construct;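 note: cells transiently co-transfected with the receptor construct and GloSensor cAMP biosensor, luminescence read after 30 min compound exposure at room temperature in the dark as cAMP accumulation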;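 for Normalized Luminescence Counts (N=2): normalized to the maximum response of β-PEA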
T4 construct: FLAG (N); 10xHis (N); TEV protease site (N); expressed in transfected cells; host or cells: HEK293T

hTA1 = molecular target: T5, hTA1 (Homo sapiens, UniProt Q96RJ0); experiment: GloSensor cAMP accumulation assay, concentration response, wild-type hTA1 in transfected HEK293T cells; settings: for Emax: HEK-293T; for Dose-response curves for asenapine vs endogenous trace amines: log[Compound], replicate values (N=2);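 for all read-outs here: luminescence read after 30 min compound exposure at room temperature in cells preloaded with D-Luciferin, reflecting Gs-driven cAMP rise, efficacy scaled to the maximal β-PEA response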
T5 construct: expressed in transfected cells; host or cells: HEK293T
T5 sequence (Q96RJ0 1-339): T2 sequence (Q96RJ0 1-339 I290Y) with Y290I

[2] = Cryo EM Construct minus WT average

T4 sequence (Q96RJ0 with tags, fused parts or gaps F112W): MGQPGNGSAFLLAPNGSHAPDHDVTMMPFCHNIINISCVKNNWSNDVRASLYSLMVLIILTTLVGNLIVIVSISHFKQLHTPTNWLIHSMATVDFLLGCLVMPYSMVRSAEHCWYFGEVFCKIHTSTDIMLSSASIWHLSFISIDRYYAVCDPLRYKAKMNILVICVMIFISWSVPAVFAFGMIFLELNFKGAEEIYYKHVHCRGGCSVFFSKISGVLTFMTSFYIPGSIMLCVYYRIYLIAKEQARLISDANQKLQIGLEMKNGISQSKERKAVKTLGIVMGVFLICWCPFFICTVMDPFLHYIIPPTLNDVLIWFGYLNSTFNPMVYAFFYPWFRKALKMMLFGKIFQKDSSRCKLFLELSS
T1 sequence (Q96RJ0 with tags, fused parts or gaps): as the sequence (Q96RJ0 with tags, fused parts or gaps F112W) above, with W137F counted along it

NCCc1ccc(O)cc1 [TYR, tyramine]
EC50 (hTA1 b2N; read-out: EC50): 0.151 µM | Emax (hTA1 b2N; read-out: Span ± SEM (Emax normalized to β-PEA)): 99.5 ± 1% | EC50 (hTA1 I290Y; I290Y, read-out: EC50): 1.96 µM | Emax (hTA1 I290Y; I290Y, read-out: Span ± SEM (Emax normalized to β-PEA)): 99 ± 3.2% | EC50 (hTA1 I290Y; I290Y, single experiments (3 replicates each), read-out: pEC50 values, Mean (converted)): 2.12 µM and 1.01 µM and 3.55 µM | Emax values, Mean (hTA1 I290Y; I290Y, single experiments (3 replicates each), β-PEA = 100): 103.315 and 92.7474 and 100.92 | cAMP accumulation response, normalized (concentration-response source data, single replicate values) (hTA1 I290Y; M = -5): 70.7589 and 112.926 and 76.6069 and 77.3087 and 89.0347 and 68.1478 and 71.4902 and 86.1539 and 63.5944 | cAMP accumulation response, normalized (concentration-response source data, single replicate values) (hTA1 I290Y; M = -5.522): 50.1368 and 56.2927 and 58.1394 and 72.545 (2×) and 68.5142 and 46.6748 and 35.395 and 37.651 | cAMP accumulation response, normalized (concentration-response source data, single replicate values) (hTA1 I290Y; M = -6): 26.4369 and 46.4433 and 36.2862 and 39.5657 and 32.9698 and 41.0314 and 25.2433 and 19.6034 and 27.4992 | cAMP accumulation response, normalized (concentration-response source data, single replicate values) (hTA1 I290Y; M = -6.522): 10.4317 and 18.1265 and 13.2018 and 24.1753 and 16.4801 and 23.4424 and 9.4516 (2×) and 6.068 | cAMP accumulation response, normalized (concentration-response source data, single replicate values) (hTA1 I290Y; M = -7): 2.737 and 6.123 and 3.045 and 3.288 (2×) and 0.7233 and 1.556 and -0.7002 and 0.4278 | cAMP accumulation response, normalized (concentration-response source data, single replicate values) (hTA1 I290Y; M = -7.522): 0.8902 and 0.2746 and -1.88 and -4.407 and -4.773 and -3.674 and -4.0841 and -1.828 and -2.956 | cAMP accumulation response, normalized (concentration-response source data, single replicate values) (hTA1 I290Y; M = -8): -1.264 and 0.8902 and -0.6488 and -2.575 and -3.307 (2×) and -4.0841 (2×) and -5.212 | cAMP accumulation response, normalized (concentration-response source data, single replicate values) (hTA1 I290Y; M = -8.522): -1.264 and -0.0332 and 0.5824 and -4.407 and -3.674 and -2.956 (2×) and -4.0841 | cAMP accumulation response, normalized (concentration-response source data, single replicate values) (hTA1 I290Y; M = -9): -3.7267 and 0.8902 and -1.88 and 1.823 and 4.021 and -3.674 and -1.828 and -2.956 and -4.0841 | cAMP accumulation response, normalized (concentration-response source data, single replicate values) (hTA1 I290Y; M = -9.522): -3.419 and -0.6488 and -1.88 and -6.239 and -4.407 and -2.208 and -2.956 (2×) and -5.212 | cAMP accumulation response, normalized (concentration-response source data, single replicate values) (hTA1 I290Y; M = -10): -1.88 and -0.9566 and -1.572 and -6.605 and -4.407 and -2.956 (2×) and -1.828 | cAMP accumulation response, normalized (concentration-response source data, single replicate values) (hTA1 I290Y; M = -10.522): -1.572 (2×) and 0.5824 | EC50 (hTA1 C5S; C5S, n=2, read-out: EC50): 0.418 µM | Emax (hTA1 C5S; C5S, n=2, read-out: Span ± SEM (Emax normalized to β-PEA)): 97.4 ± 4.98% | ΔpEC50 values (each mutant value - WT average), Mean (hTA1 C5S; hTA1 C5S minus WT average): 0.08447 and -0.09146 | EC50 (hTA1 C5S; hTA1 C5S, mean of 3 replicates, one line per independent experiment, read-out: pEC50 values, Mean (converted)): 0.342 µM and 0.512 µM | Emax values, Mean (hTA1 C5S; hTA1 C5S, β-PEA = 100, mean of 3 replicates, one line per independent experiment): 92.4348 | Emax (hTA1 C5S; hTA1 C5S, β-PEA = 100, mean of 3 replicates, one line per independent experiment, read-out: Emax values, Mean): 102% | C5S - Normalized Luminescence Counts (N=2) (hTA1 C5S; M = -5): 102.862 and 111.578 and 98.7984 and 85.7838 and 116.923 and 74.2532 | C5S - Normalized Luminescence Counts (N=2) (hTA1 C5S; M = -5.522): 86.6512 and 89.3832 and 85.861 and 68.3844 and 81.1578 and 69.9034 | C5S - Normalized Luminescence Counts (N=2) (hTA1 C5S; M = -6): 78.4779 and 69.4918 and 73.443 and 62.6536 and 54.2301 and 61.4799 | C5S - Normalized Luminescence Counts (N=2) (hTA1 C5S; M = -6.522): 44.8815 and 51.1131 and 50.1196 and 36.2784 and 34.207 and 33.0332 | C5S - Normalized Luminescence Counts (N=2) (hTA1 C5S; M = -7): 29.0315 and 24.8319 and 26.4576 and 17.7742 and 18.5337 and 19.2242 | C5S - Normalized Luminescence Counts (N=2) (hTA1 C5S; M = -7.522): 7.6273 and 8.959 and 8.553 and 6.382 and 5.3461 and 5.829 | ΔEmax values (each mutant value - WT average), Mean [1, 2]: 14.87 and 14.1384 | ΔpEC50 values (each mutant value - WT average), Mean [1, 2]: 0.1106 and 0.3686 | Emax values, Mean ([1]; Cryo EM Construct, mean of each independent experiment (3 replicates)): 0.3686 | EC50 ([1]; Cryo EM Construct, mean of each independent experiment (3 replicates), read-out: pEC50 values, Mean (converted)): 0.322 µM and 0.178 µM | Normalized Luminescence Counts (N=2) ([1]; CryoEM Construct, log[Compound], M = -5, single replicates): 108.729 and 109.99 and 112.27 and 114.944 | EC50 ([1]; CryoEM Construct, n=2, read-out: EC50): 0.235 µM | Emax ([1]; CryoEM Construct, n=2, read-out: Span ± SEM (Emax normalized to β-PEA)): 113 ± 2.5% | EC50 ([1]; CryoEM Construct, n=2, read-out: pEC50 ± SEM (converted)): 0.24 µM | Emax (hTA1): 99% | Emax (hTA1; WT hTA1, β-PEA = 100, average of the two experiments, read-out: Emax values, Avg): 99% | Emax (hTA1; WT hTA1, β-PEA = 100, each line an independent experiment, 3 replicates, read-out: Emax values (Mean)): 98.7% | Emax values, Mean (hTA1; WT hTA1, β-PEA = 100, each line an independent experiment, 3 replicates): 99.2414 | Emax values, Avg (hTA1; WT, average of the experiments, β-PEA = 100): 98.98 | Emax values, Avg (hTA1; WT, average of the two experiments): 98.98 | Emax values, Mean (hTA1; WT, mean of each independent experiment (3 replicates), β-PEA = 100): 98.7253 and 99.2414 | Emax values, Mean (hTA1; WT, single experiments (3 replicates each), β-PEA = 100): 98.7253 and 99.2414 | Dose-response curves for asenapine vs endogenous trace amines (hTA1; M = -5): 87.8798 and 96.6135 and 100.84 and 85.1295 and 110.033 and 96.1011 | Dose-response curves for asenapine vs endogenous trace amines (hTA1; M = -5.522): 78.3008 and 89.6171 and 91.9649 and 78.2527 and 93.1412 and 82.5257 | Dose-response curves for asenapine vs endogenous trace amines (hTA1; M = -6): 74.2157 and 61.4437 and 71.9149 and 59.67 and 72.4888 and 65.1224 | Dose-response curves for asenapine vs endogenous trace amines (hTA1; M = -6.522): 42.6615 and 39.1398 and 48.3901 and 34.5221 and 51.4135 and 39.5962 | Dose-response curves for asenapine vs endogenous trace amines (hTA1; M = -7): 13.8777 and 16.742 and 21.1088 and 17.6752 and 31.7847 and 17.7865 | Dose-response curves for asenapine vs endogenous trace amines (hTA1; M = -7.522): 4.58 and 3.454 and 4.252 and 2.943 and 7.126 and 3.989 | Dose-response curves for asenapine vs endogenous trace amines (hTA1; M = -8): 2.796 and 3.5 and 3.313 and 3.588 and 4.545 and 4.122 | Dose-response curves for asenapine vs endogenous trace amines (hTA1; M = -8.522): 0.3075 and 0.6831 and 1.294 and -0.5515 and 0.6503 and 0.4723 | Dose-response curves for asenapine vs endogenous trace amines (hTA1; M = -9): -0.6786 and 0.2605 and 0.02574 and -1.508 and -0.9298 and -0.774 | Dose-response curves for asenapine vs endogenous trace amines (hTA1; M = -9.522): -0.5847 and -0.9603 and -0.3499 and -2.02 and -0.7963 and -1.241 | Dose-response curves for asenapine vs endogenous trace amines (hTA1; M = -10): -0.1151 and -1.148 and -0.9134 and -1.041 and -0.1064 and -1.063 | Dose-response curves for asenapine vs endogenous trace amines (hTA1; M = -10.522): -0.3029 and -1.148 and -1.43 and -1.798 and -1.019 and -1.397 | Dose-response curves for asenapine vs endogenous trace amines (hTA1; M = -11): -0.209 (3×) and -0.6182 and 0.361 and -0.7518 | Dose-response curves for asenapine vs endogenous trace amines (hTA1; M = -11.522): 0.0727 and -0.06817 and 0.2605 and -0.7073 and 0.1607 and -0.4179 | Dose-response curves for asenapine vs endogenous trace amines (hTA1; M = -12): 0.0727 and 1.247 and 0.777 and -1.086 and -0.774 (2×) | Dose-response curves for asenapine vs endogenous trace amines (hTA1; M = -12.522): 0.4483 and 0.1197 and 0.3544 and -2.02 and -1.575 and -1.33 | EC50 (hTA1; pEC50 values (Mean), WT hTA1, each line an independent experiment, 3 replicates, Figure 2B source data): 0.414 µM and 0.416 µM | EC50 (hTA1; pEC50 ± SEM, wt hTA1, HEK293T, n=3): 0.417 µM | EC50 (hTA1; wt hTA1, HEK293T, n=3, read-out: EC50): 0.415 µM
